We go through six compounds from patent US3948885A, “5-Hydroxyl-1,2,3-triazole-4-carboxamide nucleoside” (ICN Pharmaceuticals, Inc., priority 1973, dated 1976).

“Also recorded” adds a separate entry of the source. Read-outs that look alike come from different tables or passages of the source.

The conditions of series [1]: literature; cited from earlier work.
For another series, the system named is measles virus. Put plainly: Plaque inhibition (measles virus). Format: cell-based. Particulars: for inhibition at 20 µg/mL / inhibition at 100 µg/mL / inhibition at 500 µg/mL: Measles morbillivirus, 96 h, VERO cells, 4 days at 37°C, >=50% definite, 20 to 50 moderate, <20% little or no antiviral activity; for inhibition at 20 µg/mL: read-out: Percent Plaque Inhibition at 20 µg/mL; for inhibition at 100 µg/mL: read-out: Percent Plaque Inhibition at 100 µg/mL; for inhibition at 500 µg/mL: read-out: Percent Plaque Inhibition at 500 µg/mL.

A further series deals with Type 1 herpes simplex. Put plainly: In vitro activity against Type 1 herpes simplex, virus rating (VR) method of Sidwell et al. Format: cell-based. Particulars: for virus rating (VR): method of Sidwell et al. Appl. Microbiol. 22, 797 (1971).
For series [2] the following is noted: D. C. Delong et al, 1971; cited from earlier work.

For the compound `NC(=O)c1ncn([C@@H]2O[C@H](CO)[C@@H](O)[C@H]2O)n1` [1-β-D-ribofuranosyl-1,2,4-triazole-3-carboxamide], the “antiviral activity (in words)” value in series [1] is recorded as “substantial range of antiviral activity”.
Consider `NC(=O)c1nnn([C@@H]2O[C@H](CO)[C@@H](O)[C@H]2O)c1O` [Compound 1, 5-Hydroxy-1-β-D-ribofuranosyl-1,2,3-triazole-4-carboxamide], for which, in the series with measles virus, the inhibition at 20 µg/mL was determined as 33%, the inhibition at 100 µg/mL amounted to 84% and the inhibition at 500 µg/mL is 100%. In addition, the “activity against measles virus (in words)” value in the series on measles virus (in vitro) is on record as “exhibited in vitro activity”. In addition, in the series on Type 1 herpes simplex, the “activity against Type 1 herpes simplex (in words)” value is on record as “exhibited in vitro activity; also recorded: active” and the “virus rating (VR)” value is 0.6.
In the case of `NC(=O)c1nn([C@@H]2O[C@H](CO)[C@@H](O)[C@H]2O)nc1O` [Compound 2, 5-Hydroxy-2-β-D-ribofuranosyl-1,2,3-triazole-4-carboxamide], in the series with measles virus, the inhibition at 20 µg/mL was determined as 0%, the inhibition at 100 µg/mL turned out to be 0% and the inhibition at 500 µg/mL worked out at 5%.
Regarding `NC(=O)c1[nH]nnc1O` [Compound 3, 4-Hydroxy-1,2,3-triazole-5-carboxamide], in the series on measles virus, the inhibition at 20 µg/mL is 33%, the inhibition at 100 µg/mL is 60% and the inhibition at 500 µg/mL was 89%. In the series with Type 1 herpes simplex, the “activity against Type 1 herpes simplex (in words)” value is on record as “active” and the “virus rating (VR)” value is recorded as 0.6.
Turning to `O.[NH-]C(=O)c1[nH]nnc1O.[Na+]` [Compound 4, 4-Hydroxy-1,2,3-triazole-5-carboxamide Sodium Salt Monohydrate], the “activity against Type 1 herpes simplex (in words)” value with Type 1 herpes simplex (Sodium Salt Monohydrate) is reported as “active”. The “virus rating (VR)” value in the series with Type 1 herpes simplex is reported as 0.5.
For the compound `NC(=O)c1[nH]nc([C@@H]2O[C@H](CO)[C@@H](O)[C@H]2O)c1O` [pyrazomycin], the “antiviral activity (in words)” value in series [1] was “exhibits a substantial range of antiviral activity”. Besides, the “toxicity associated with employment in vivo (in words)” value in series [2] is reported as “a degree of toxicity”.
